In patent publication US20240067651A1 (Biohaven Therapeutics Ltd., priority 2019, published 2024):

What was measured:
[1] = Caco-2 Permeability Assay; type: in vitro ADME, human; conditions: human
Outline: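 Bidirectional transport at 37 °C for 90 min, 10 μM donor concentration, with or without Pgp inhibitor, across 21-day Caco-2 monolayers with TEER >600 […] in HEPES-buffered HBSS, pH 7.4. LC-MS/MS of donor and receiver samples gives Papp, B→A/A→B efflux ratio and mass recovery.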

[2] = Stability in Simulated Gastric Fluid (SGF); type: in vitro ADME; parameters: key: % parent compound remaining relative to 0-minute sample
Outline: (§1)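 LC-MS/MS read-out of intact compound (2 μg/mL final) over 60 minutes at 37° C; gastric medium pH 1.2 with pepsin, intestinal medium pH 6.8 with pancreatin. Half-life from ln(% remaining) against time.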

[3] = Stability in Simulated Intestinal Fluid (SIF); type: in vitro ADME; parameters: key: % parent compound remaining relative to 0-minute sample
Outline: as §1

[4] = Plasma Stability; type: in vitro ADME, human
Outline: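 Parent compound quantified by LC-MS/MS after acetonitrile precipitation, reported as percent of control remaining (triplicate). Incubation: 1 hour, 37° C, fresh human plasma, compound at 1 μM.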

[5] = Caco-2, pH 7.4, Caco-2 monolayer
[6] = % remaining at 1 h in simulated gastric fluid
[7] = % remaining at 1 h in simulated intestinal fluid
[8] = % remaining at 1 h in human plasma
[9] = Caco-2, pH 7.4, donor 10 μM, 90 minutes, 37° C., direction not given
[10] = % remaining at 1 h, SGF with pepsin pH 1.2, 2 μg/mL, 37° C.
[11] = % remaining at 1 h, SIF with pancreatin pH 6.8, 2 μg/mL, 37° C.
[12] = % remaining at 1 h, human plasma, 1 μM, 37° C.
[13] = % @ 1 h (remaining) in simulated gastric fluid
[14] = % @ 1 h (remaining) in simulated intestinal fluid
[15] = % @ 1 h (remaining) in human plasma
[16] = Caco-2, pH 7.4, no unit printed at the place (tables the 9th table and the 10th table have no head)
[17] = Caco-2, pH 7.4, Caco-2 monolayer, the 17th table
[18] = % remaining at 1 h in simulated gastric fluid, the 17th table
[19] = % remaining at 1 h in simulated intestinal fluid, the 17th table
[20] = % remaining at 1 h in human plasma, the 17th table
[21] = bare number, no % and no time given

## CCOC(=O)N1CCCC1C(=O)NCCC(=O)OCn1ccc2c1c(=O)[nH]c(=S)n2CCOC(C)C.O=C(O)C(F)(F)F (stereo not drawn) [Example 66]
[1]; [5]
  Papp at 90 min, 10 µM: 0.736 ×10⁻⁶ cm/s
[2]; [6]
  SGF: 96% remaining
[3]; [7]
  SIF: 80% remaining
[4]; [8]
  human Plasma stability: 75% remaining

## CC(C)OCCn1c(SCOC(=O)N(C)c2ccccc2)nc(=O)c2[nH]ccc21 [Example 209, ({4-oxo-1-[2-(propan-2-yloxy)ethyl]-1H,4H,5H-pyrrolo[3,2-d]pyrimidin-2-yl}sulfanyl)methyl N-methyl-N-phenylcarbamate]
[1]; [9]
  Papp at 90 min, 10 µM: 16.1 ×10⁻⁶ cm/s
[2]; [10]
  SGF: 99% remaining
[3]; [11]
  SIF: 99% remaining
[4]; [12]
  human Plasma stability: 97% remaining

## CCC(=O)OCn1ccc2c1c(=O)[nH]c(=S)n2CCOC(C)C [Example 156]
[1]; [5]
  Papp at 90 min, 10 µM: 6.55 ×10⁻⁶ cm/s
[2]; [13]
  SGF: 99% @ 1 h
[3]; [14]
  SIF: 1% @ 1 h
[4]; [15]
  human Plasma stability: 0% @ 1 h

## CC(C)OCCn1c(=S)[nH]c(=O)c2c1ccn2COC(=O)CCNC(=O)CNC(=O)OC(C)(C)C [Example 9, {4-Oxo-1-[2-(propan-2-yloxy)ethyl]-2-sulfanylidene-1H,2H,3H,4H,5H-pyrrolo[3,2-d]pyrimidin-5-yl}methyl 3-(2-{[(tert-butoxy)carbonyl]amino}acetamido)propanoate]
[1]; [9]
  Papp at 90 min, 10 µM: 1.53 ×10⁻⁶ cm/s
[2]; [10]
  SGF: 100%
[3]; [11]
  SIF: 61%
[4]; [12]
  human Plasma stability: 52%

## CSCC[C@H](NC(=O)OCC1c2ccccc2-c2ccccc21)C(=O)NCCCCC(=O)OCn1ccc2c1c(=O)[nH]c(=S)n2CCOC(C)C.O=C(O)C(F)(F)F [Example 20]
[1]; [5]
  Papp at 90 min, 10 µM: 0.985 ×10⁻⁶ cm/s
[2]; [6]
  SGF: 80% remaining
[3]; [7]
  SIF: 76% remaining
[4]; [8]
  human Plasma stability: 64% remaining

## CC(C)OCCn1c(SC(C)OC(=O)N(C(C)C)C(C)C)nc(=O)c2[nH]ccc21 (stereo not drawn) [Example 208, 1-({4-Oxo-1-[2-(propan-2-yloxy)ethyl]-1H,4H,5H-pyrrolo[3,2-d]pyrimidin-2-yl}sulfanyl)ethyl N,N-bis(propan-2-yl)carbamate]
[1]; [9]
  Papp at 90 min, 10 µM: 18.3 ×10⁻⁶ cm/s
[2]; [10]
  SGF: 1%
[3]; [11]
  SIF: 93%
[4]; [12]
  human Plasma stability: 98%

## CC(C)OCCn1c(=S)[nH]c(=O)c2c1ccn2COC(=O)N[C@H](C(=O)OC(C)(C)C)C(C)C [Example 107, tert-butyl (2S)-3-methyl-2-{[{{4-oxo-1-[2-(propan-2-yloxy)ethyl]-2-sulfanylidene-1H,2H,3H,4H,5H-pyrrolo[3,2-d]pyrimidin-5-yl}methoxy)carbonyl]amino}butanoate]
[1]; [16]
  Papp at 90 min, 10 µM: 11.5 ×10⁻⁶ cm/s
[2]; [10]
  SGF: 93%
[3]; [11]
  SIF: 92%
[4]; [12]
  human Plasma stability: 86%

## Cc1ccccc1N(C)C(=O)OCSc1nc(=O)c2[nH]ccc2n1CCOC(C)C [Example 242]
[1]; [5]
  Papp at 90 min, 10 µM: 15.6 ×10⁻⁶ cm/s
[2]; simulated gastric fluid, at 1 h
  SGF: 52% remaining
[3]; simulated intestinal fluid, at 1 h
  SIF: 96% remaining
[4]; human plasma, at 1 h
  human Plasma stability: 81% remaining

## CCN(C)C(=O)OCSc1nc(=O)c2[nH]ccc2n1CCOC(C)C [Example 163]
[1]; [5]
  Papp at 90 min, 10 µM: 4.2 ×10⁻⁶ cm/s
[2]; [13]
  SGF: 99% @ 1 h
[3]; [14]
  SIF: 96% @ 1 h
[4]; [15]
  human Plasma stability: 90% @ 1 h

## CC(C)NC(=O)n1ccc2c1c(=O)[nH]c(=S)n2CCOC(C)C [Example 223]
[1]; [17]
  Papp at 90 min, 10 µM: 37 ×10⁻⁶ cm/s
[2]; [18]
  SGF: 87% remaining
[3]; [19]
  SIF: 70% remaining
[4]; [20]
  human Plasma stability: 99% remaining

## CC(C)OCCn1c(=S)n(COC(=O)[C@H](N)C(C)C)c(=O)c2c1ccn2COC(=O)[C@H](N)C(C)C.O=C(O)C(F)(F)F.O=C(O)C(F)(F)F [Example 301, bis(trifluoroacetic acid) [3-({[(2R)-2-amino-3-methylbutanoyl]oxy}methyl)-4-oxo-1-[2-(propan-2-yloxy)ethyl]-2-sulfanylidene-1H,2H,3H,4H,5H-pyrrolo [3,2-d]pyrimidin-5-yl]methyl (2R)-2-amino-3-methylbutanoate]
[1]; Caco-2, pH 7.4
  Papp at 90 min, 10 µM: 1.72 ×10⁻⁶ cm/s
[2]; % remaining @ 1 h
  SGF: 97% @ 1 h
[3]; % remaining @ 1 h
  SIF: 10% @ 1 h
[4]; % remaining @ 1 h
  human Plasma stability: 5% @ 1 h

## CC(C)OCCn1c(=S)[nH]c(=O)c2c1ccn2COC(=O)CCNC(=O)[C@@H](N)[C@@H](C)O.O=C(O)C(F)(F)F [Example 40]
[1]; [5]
  Papp at 90 min, 10 µM: < 0.235 ×10⁻⁶ cm/s
[2]; [6]
  SGF: 100%
[3]; [7]
  SIF: 86% remaining
[4]; [8]
  human Plasma stability: 88% remaining

## CC(C)OCCn1c(=S)[nH]c(=O)c2c1ccn2COC(=O)CCCCOC(=O)CN.O=C(O)C(F)(F)F [Example 330, trifluoroacetic acid {4-oxo-1-[2-(propan-2-yloxy)ethyl]-2-sulfanylidene-1H,2H,3H,4H,5H-pyrrolo[3,2-d]pyrimidin-5-yl}methyl 5-[(2-aminoacetyl)oxy]pentanoate]
[1]; Caco-2, pH 7.4
  Papp at 90 min, 10 µM: 0.641 ×10⁻⁶ cm/s
[2]; % remaining @ 1 h
  SGF: 84% @ 1 h
[3]; % remaining @ 1 h
  SIF: 7% @ 1 h
[4]; % remaining @ 1 h
  human Plasma stability: 2% @ 1 h

## C=CCN(C)C(=O)OCSc1nc(=O)c2[nH]ccc2n1CCOC(C)C.O=C(O)C(F)(F)F [Example 177]
[1]; [5]
  Papp at 90 min, 10 µM: 15.2 ×10⁻⁶ cm/s
[2]; [13]
  SGF: 99% @ 1 h
[3]; [14]
  SIF: 89% @ 1 h
[4]; [15]
  human Plasma stability: 99% @ 1 h

## C=CCCN(C)C(=O)OCSc1nc(=O)c2[nH]ccc2n1CCOC(C)C.O=C(O)C(F)(F)F [Example 179]
[1]; [5]
  Papp at 90 min, 10 µM: 14.5 ×10⁻⁶ cm/s
[2]; [13]
  SGF: 95% @ 1 h
[3]; [14]
  SIF: 91% @ 1 h
[4]; [15]
  human Plasma stability: 99% @ 1 h

## COCCOCCOC(=O)OCSc1nc(=O)c2c(ccn2COC(=O)OCCOCCOC)n1CCOC(C)C [Example 104, (2-{[{{[2-(2-methoxyethoxy)ethoxy]carbonyl}oxy)methyl]sulfanyl}-4-oxo-1-[2-(propan-2-yloxy)ethyl]-1H,4H,5H-pyrrolo[3,2-d]pyrimidin-5-yl)methyl 2-(2-methoxyethoxy)ethyl carbonate]
[1]; [16]
  Papp at 90 min, 10 µM: 0.276 ×10⁻⁶ cm/s
[2]; [10]
  SGF: 96%
[3]; [11]
  SIF: 70%
[4]; [12]
  human Plasma stability: 18%

## CC(C)OCCn1c(=S)[nH]c(=O)c2c1ccn2C(=O)NCc1ccccc1 [Example 228]
[1]; [17]
  Papp at 90 min, 10 µM: 10.3 ×10⁻⁶ cm/s
[2]; [18]
  SGF: 95% remaining
[3]; [19]
  SIF: 100% remaining
[4]; [20]
  human Plasma stability: 99% remaining

## CC(C)OCCn1c(=S)[nH]c(=O)c2c1ccn2C(=O)NC(C)(C)C [Example 229, N-tert-butyl-4-oxo-1-[2-(propan-2-yloxy)ethyl]-2-sulfanylidene-1H,2H,3H,4H,5H-pyrrolo[3,2-d]pyrimidine-5-carboxamide]
[1]; [9]
  Papp at 90 min, 10 µM: 26.4 ×10⁻⁶ cm/s
[2]; [10]
  SGF: 98%
[3]; [11]
  SIF: 76%
[4]; [12]
  human Plasma stability: 96%

## CC(C)OCCn1c(SCOC(=O)N(C)CC(F)(F)F)nc(=O)c2[nH]ccc21 [Example 94, ({4-oxo-1-[2-(propan-2-yloxy)ethyl]-1H,4H,5H-pyrrolo[3,2-d]pyrimidin-2-yl}sulfanyl)methyl N-methyl-N-(2,2,2-trifluoroethyl)carbamate]
[1]; [9]
  Papp at 90 min, 10 µM: 15.1 ×10⁻⁶ cm/s
[2]; [21]
  SGF: 99
[3]; [21]
  SIF: 95
[4]; [12]
  human Plasma stability: 99% remaining

## CC(C)OCCn1c(=S)[nH]c(=O)c2c1ccn2COC(=O)CN [Example 284]
[1]; [5]
  Papp at 90 min, 10 µM: 1.55 ×10⁻⁶ cm/s
[2]; simulated gastric fluid, @ 1 h
  SGF: 100% @ 1 h
[3]; simulated intestinal fluid, @ 1 h
  SIF: 6% @ 1 h
[4]; human plasma, @ 1 h
  human Plasma stability: 0% @ 1 h

## CC(C)OCCn1c(SC(C)OC(=O)N(C)c2ncccc2COC(=O)CN(C)C(=O)OC(C)(C)C)nc(=O)c2[nH]ccc21 (stereo not drawn) [Example 212, (tert-Butoxycarbonyl-methyl-amino)-acetic acid 2-({1-[1-(2-isopropoxy-ethyl)-4-oxo-4,5-dihydro-1H-pyrrolo[3,2-d]pyrimidin-2-ylsulfanyl]-ethoxycarbonyl}-methyl-amino)-pyridin-3-ylmethyl ester]
[1]; [9]
  Papp at 90 min, 10 µM: 0.87 ×10⁻⁶ cm/s
[2]; [10]
  SGF: 89%
[3]; [11]
  SIF: 97%
[4]; [12]
  human Plasma stability: 97%
